# Where “and” joins values, the source holds several entries; their conditions need not be identical. Equal entries are not always repeated.
# Columns and labels:
# Type in all cases: cell-based, human
# [1] = tested on: Sp1; assay: Immunoblot analysis of Sp1 expression in HEL cells; settings: PMA 100 nM over 48 h
# Procedure: (§1) The expression of WT1, Sp1, Egr1, NF-E2, GATA-1 and Ets-1 proteins in HEL cells was confirmed by western blot analysis. Briefly, whole cell protein was resolved by SDS-PAGE (10% acrylamide gels) and transferred to polyvinylidene difluoride (PVDF) membrane according to standard methodology. Membranes were screened using anti-WT1, anti-NF-E2, anti-Sp1, anti-Egr1, anti-GATA-1 or anti-Ets-1 sera in 5% non fat dried milk in 1×TBS (0.01 M Tris/HCl, 0.1 M NaCl) for 2 h at room temperature followed by washing and screening using goat anti-rabbit horseradish peroxidase (sc-2204) followed by chemiluminescence detection, as described by the supplier (Roche Applied Science). For PMA studies, HEL cells were pre-incubated for the indicated amount of time with 100 nM PMA, with 10 μM PD98059, with 100 nM PMA plus 10 μM PD98059 or, as a control, with vehicle [0.1% (v/v) DMSO]. Whole cell protein (60 μg per lane) was resolved by SDS-PAGE (10% acrylamide gels) and transferred to polyvinylidene difluoride (PVDF) membrane according to standard methodology. […] Cells were harvested 48 hr post-transfection and aliquots ([…]) were analysed by SDS-PAGE/western blot analysis. As a positive control for hTF expression, […] of a commercial control Tissue-Factor Biomass was also analysed. […]
# [2] = tested on: Egr1; assay: Immunoblot analysis of Egr1 expression in HEL cells; settings: PMA 100 nM, 0-48 h
# Procedure: The expression of WT1, Sp1, Egr1, NF-E2, GATA-1 and Ets-1 proteins in HEL cells was confirmed by western blot analysis. Briefly, whole cell protein was resolved by SDS-PAGE (10% acrylamide gels) and transferred to polyvinylidene difluoride (PVDF) membrane according to standard methodology. […] For PMA studies, HEL cells were pre-incubated for the indicated amount of time with 100 nM PMA, with 10 μM PD98059, with 100 nM PMA plus 10 μM PD98059 or, as a control, with vehicle [0.1% (v/v) DMSO]. Whole cell protein (60 μg per lane) was resolved by SDS-PAGE (10% acrylamide gels) and transferred to polyvinylidene difluoride (PVDF) membrane according to standard methodology.
# [3] = tested on: WT1; assay: Immunoblot analysis of WT1 expression in HEL cells; settings: PMA 100 nM over 48 h
# Procedure: as §1
# [4] = tested on: Prm1-directed luciferase expression; assay: Effect of PMA, PD98059 or Vitamin D3 on Prm1-directed luciferase expression in HEL cells
# Procedure: HEL and EA.hy 926 cells were co-transfected with the various pGL3Basic-recombinant plasmids (2 mg), encoding firefly luciferase, along with pRL-TK (200 ng), encoding renilla luciferase, using DMRIE-C® transfection reagent. HEK293, WI-38, and 1° hAoSMCs were co-transfected with the pGL3Basic-recombinant plasmids (2 mg), along with pRL-TK (200 ng), using Effectene transfection reagent. In all cases, cells co-transfected with pRL-TK (200 ng) in the presence of either the pGL3Control vector (firefly luciferase gene under the control of the SV40 promoter; 2 mg) or the promoter-less pGL3Basic empty vector (2 mg), which served as positive and negative controls, respectively. […] Relative firefly to renilla luciferase activity (arbitrary units) was calculated as a ratio and was expressed in relative luciferase units (RLU). To investigate the effect of over-expression of exon 5 (+ or −) or KTS (+ or −) isoforms of WT1 on Prm1-directed gene expression, HEL cells were co-transfected with either pGL3b:Prm1 or pGL3b:Prm1D (1.5 μg) plus 200 ng of pRL-TK along with either pcDNA3:WT1 (+/+), pcDNA3:WT1 (+/−), pcDNA3:WT1 (−/+), pcDNA3:WT1 (−/−) (0.5 μg), or as a control, pcDNA3 (0.5 μg). […] The plasmid pCMV5-NAB1, containing the entire coding sequence for NAB1, was generously donated by Dr. Gerald Thiel, University of Saarland Medical Center, Homburg, Germany, and has been described previously (Thiel et al., 2000). To investigate the effect of over-expression of NAB1 on the PMA-mediated induction of Prm1-directed gene expression, HEL cells were transiently co-transfected with pGL3b:Prm1 (2 μg) plus pRL-TK (200 ng) along with either pCMV5 (control) or pCMV:NAB1 (1 μg).
# [5] = tested on: TPα mRNA; assay: RT-PCR and Southern blot analysis of TPα mRNA expression in HEL cells; settings: PMA 100 nM, 2 to 48 h
# Procedure: Total RNA was isolated from HEL 92.1.7 cells (5×10^6 approximately) using TRIzol reagent (Invitrogen Life Technologies). RT-PCR was carried out with DNase 1-treated total RNA using oligonucleotide primers to specifically amplify TPα and glyceraldehyde-3-phosphate dehydrogenase (GAPDH) mRNA sequences, as previously described (Miggin et al., 1998). The following primers were used: […]
# Following agarose gel electrophoresis, PCR products were transferred to Biodyne® B positively-charged nylon membrane (PaII) using standard methodology (Sambrook et al., 1989). Southern blot analysis of the RT-PCR products was carried out using oligonucleotide probes (5′ end-labelled with biotin) specific for TPα (Kin 583: 5′[Btn][…] GAAG3′, SEQ ID NO:80) and GAPDH (Kin 584: 5′[Btn][…]3′, SEQ ID NO:81] mRNA sequences and detection was carried out using the Detector™ HRP Chemiluminescent Blotting Kit (KPL), as described by the manufacturer.
smiles,measurement,setting,value
"CCCCCCCCCCCCCC(=O)O[C@@H]1[C@@H](C)[C@@]2(O)[C@@H](C=C(CO)C[C@]3(O)C(=O)C(C)=C[C@@H]23)[C@@H]2C(C)(C)[C@]12OC(C)=O [PMA, phorbol 12-myristate 13-acetate]",Sp1 protein expression,[1],did not result in appreciable changes in the expression of Sp1
same,Egr1 protein expression,[2],significant increase in Egr1 expression from 1 to 16 h
same,WT1 protein expression,[3],did not substantially alter the expression of the WT1 doublet
same,Time of incubation to significantly increased Prm1-directed luciferase activity,"[4]; PMA 100 nM, 0-48 h",≤ 4 h
same,Increase in Prm1-directed luciferase expression,"[4]; PMA 100 nM, 16 h, vs vehicle",4 fold and 4.3 fold
same,Effect on luciferase expression directed by the Prm1K sub-fragment,"[4]; PMA alone 100 nM, 16 h",neither PMA alone (p=0.4721) nor PMA plus PD98059 (p=0.2693) had any significant effect
same,TPα mRNA expression,[5],"time-dependent, sustained increase in TPα mRNA expression"

# From patent publication US20110269825A1, “Modified Thromboxane A2 Receptor Promoter Sequence” (priority 2008, published 2011)
